In patent US8158636B2, “Compounds and methods for kinase modulation, and indications therefor” (Plexxikon Inc., priority 2008, dated 2012):

Key:
Type in all cases: biochemical
TrkA = TrkA (Homo sapiens, UniProt P04629); experiment: Kinase activity assay, TrkA; conditions: Table 1m; read-out: activity toward kinase TrkA, IC50
From the text: (§1) Assays for the activity of kinases, including, but not limited to, Fms, Kit, B-Raf, B-Raf V600E, c-Raf-1, and TrkA are known in the art, for example as described in US Patent Publication Number US20070032519 and U.S. patent application Ser. No. 11/473,347 (see also, PCT publication WO2007002433), the disclosures of which are hereby incorporated by reference with respect to such assays.

Kit = Kit (Homo sapiens, UniProt P10721); experiment: Kinase activity assay, Kit; conditions: Table 1j; read-out: activity toward kinase Kit, IC50
From the text: as §1

Flt-3 = molecular target: T1, Flt-3 (Homo sapiens, UniProt P36888); experiment: Kinase activity assay, Flt-3; conditions: Table 1g; read-out: activity toward kinase Flt-3, IC50
T1 sequence (P36888 27-993): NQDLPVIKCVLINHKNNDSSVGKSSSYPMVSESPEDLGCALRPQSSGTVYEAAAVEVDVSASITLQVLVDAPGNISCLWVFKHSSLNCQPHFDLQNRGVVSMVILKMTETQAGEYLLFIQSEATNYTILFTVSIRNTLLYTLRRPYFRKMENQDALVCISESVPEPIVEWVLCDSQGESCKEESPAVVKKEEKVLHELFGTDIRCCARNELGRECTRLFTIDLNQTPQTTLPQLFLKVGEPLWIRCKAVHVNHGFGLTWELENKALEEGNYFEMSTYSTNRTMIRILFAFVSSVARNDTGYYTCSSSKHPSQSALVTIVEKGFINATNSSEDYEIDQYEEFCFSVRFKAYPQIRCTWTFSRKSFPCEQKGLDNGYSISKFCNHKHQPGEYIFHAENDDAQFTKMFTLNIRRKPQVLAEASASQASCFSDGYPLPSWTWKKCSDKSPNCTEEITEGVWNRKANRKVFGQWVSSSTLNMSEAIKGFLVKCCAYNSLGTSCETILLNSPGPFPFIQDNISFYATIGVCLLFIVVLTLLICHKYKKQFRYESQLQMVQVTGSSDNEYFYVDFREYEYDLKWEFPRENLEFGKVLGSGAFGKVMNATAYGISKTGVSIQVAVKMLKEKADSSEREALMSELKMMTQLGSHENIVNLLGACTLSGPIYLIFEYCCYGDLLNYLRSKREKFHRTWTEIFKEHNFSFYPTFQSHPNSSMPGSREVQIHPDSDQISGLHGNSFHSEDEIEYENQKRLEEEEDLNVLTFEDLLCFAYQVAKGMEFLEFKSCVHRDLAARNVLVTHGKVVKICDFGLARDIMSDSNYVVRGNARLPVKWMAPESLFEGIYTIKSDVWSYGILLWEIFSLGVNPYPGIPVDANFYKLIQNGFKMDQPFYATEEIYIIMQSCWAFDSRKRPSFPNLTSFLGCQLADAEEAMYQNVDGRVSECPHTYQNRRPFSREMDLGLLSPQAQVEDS
From the text: as §1

Kdr = Kdr (Homo sapiens, UniProt P35968); experiment: Kinase activity assay, Kdr; conditions: Table 1i; read-out: activity toward kinase Kdr, IC50
From the text: as §1

Fms = Fms (Homo sapiens, UniProt P07333); experiment: Kinase activity assay, Fms; conditions: Table 1h; read-out: activity toward kinase Fms, IC50
From the text: as §1

Src = Src (Homo sapiens, UniProt P12931); experiment: Kinase activity assay, Src; conditions: Table 1k; read-out: activity toward kinase Src, IC50
From the text: as §1

B-Raf V600E = B-Raf V600E (Homo sapiens, UniProt P15056, V600E); experiment: Kinase activity assay, B-Raf V600E; conditions: Table 1c; read-out: activity toward kinase B-Raf V600E, IC50
From the text: as §1

A-Raf = molecular target: T2, A-Raf (Homo sapiens, UniProt P10398); experiment: Kinase activity assay, A-Raf; conditions: Table 1a; read-out: activity toward kinase A-Raf, IC50
T2 sequence (P10398 1-606): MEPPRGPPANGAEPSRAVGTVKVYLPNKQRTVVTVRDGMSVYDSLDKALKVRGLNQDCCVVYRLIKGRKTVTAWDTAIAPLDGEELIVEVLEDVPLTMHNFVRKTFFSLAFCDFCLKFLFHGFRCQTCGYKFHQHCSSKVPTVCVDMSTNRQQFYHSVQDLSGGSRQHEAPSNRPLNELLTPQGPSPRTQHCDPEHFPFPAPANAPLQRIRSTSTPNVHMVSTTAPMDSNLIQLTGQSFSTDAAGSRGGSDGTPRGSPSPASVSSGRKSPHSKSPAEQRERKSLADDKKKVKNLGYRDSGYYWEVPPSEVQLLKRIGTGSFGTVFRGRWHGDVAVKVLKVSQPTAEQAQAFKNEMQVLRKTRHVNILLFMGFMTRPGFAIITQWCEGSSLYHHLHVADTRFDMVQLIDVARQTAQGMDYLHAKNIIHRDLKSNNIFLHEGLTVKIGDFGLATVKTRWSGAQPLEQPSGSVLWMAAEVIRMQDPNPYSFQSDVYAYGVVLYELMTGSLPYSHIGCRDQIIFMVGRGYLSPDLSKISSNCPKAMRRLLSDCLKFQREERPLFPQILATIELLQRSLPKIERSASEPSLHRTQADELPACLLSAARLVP
From the text: as §1

B-Raf = B-Raf (Homo sapiens, UniProt P15056); experiment: Kinase activity assay, B-Raf; conditions: Table 1b; read-out: activity toward kinase B-Raf, IC50
From the text: as §1

C-Raf = C-Raf (Homo sapiens, UniProt P04049); experiment: Kinase activity assay, C-Raf; conditions: Table 1d; read-out: activity toward kinase C-Raf, IC50
From the text: as §1

Measured: IC50

Sequence of C-Raf (P04049 whole entry): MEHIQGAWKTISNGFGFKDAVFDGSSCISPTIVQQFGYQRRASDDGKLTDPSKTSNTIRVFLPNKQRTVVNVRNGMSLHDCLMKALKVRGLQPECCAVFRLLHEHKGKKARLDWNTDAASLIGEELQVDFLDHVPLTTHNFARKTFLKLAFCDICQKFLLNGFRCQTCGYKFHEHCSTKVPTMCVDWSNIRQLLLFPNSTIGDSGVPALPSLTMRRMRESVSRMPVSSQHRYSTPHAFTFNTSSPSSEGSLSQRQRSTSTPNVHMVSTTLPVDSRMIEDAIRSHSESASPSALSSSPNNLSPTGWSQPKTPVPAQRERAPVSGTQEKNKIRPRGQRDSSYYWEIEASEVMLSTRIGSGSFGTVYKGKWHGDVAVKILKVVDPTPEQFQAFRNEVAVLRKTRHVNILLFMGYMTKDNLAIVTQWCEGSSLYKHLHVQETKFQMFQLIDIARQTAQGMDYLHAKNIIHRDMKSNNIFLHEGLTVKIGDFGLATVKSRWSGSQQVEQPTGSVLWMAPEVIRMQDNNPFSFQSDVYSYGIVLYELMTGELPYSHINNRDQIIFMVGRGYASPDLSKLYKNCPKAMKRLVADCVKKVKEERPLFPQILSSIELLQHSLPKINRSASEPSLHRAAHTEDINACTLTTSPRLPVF
Sequence of B-Raf (P15056 whole entry): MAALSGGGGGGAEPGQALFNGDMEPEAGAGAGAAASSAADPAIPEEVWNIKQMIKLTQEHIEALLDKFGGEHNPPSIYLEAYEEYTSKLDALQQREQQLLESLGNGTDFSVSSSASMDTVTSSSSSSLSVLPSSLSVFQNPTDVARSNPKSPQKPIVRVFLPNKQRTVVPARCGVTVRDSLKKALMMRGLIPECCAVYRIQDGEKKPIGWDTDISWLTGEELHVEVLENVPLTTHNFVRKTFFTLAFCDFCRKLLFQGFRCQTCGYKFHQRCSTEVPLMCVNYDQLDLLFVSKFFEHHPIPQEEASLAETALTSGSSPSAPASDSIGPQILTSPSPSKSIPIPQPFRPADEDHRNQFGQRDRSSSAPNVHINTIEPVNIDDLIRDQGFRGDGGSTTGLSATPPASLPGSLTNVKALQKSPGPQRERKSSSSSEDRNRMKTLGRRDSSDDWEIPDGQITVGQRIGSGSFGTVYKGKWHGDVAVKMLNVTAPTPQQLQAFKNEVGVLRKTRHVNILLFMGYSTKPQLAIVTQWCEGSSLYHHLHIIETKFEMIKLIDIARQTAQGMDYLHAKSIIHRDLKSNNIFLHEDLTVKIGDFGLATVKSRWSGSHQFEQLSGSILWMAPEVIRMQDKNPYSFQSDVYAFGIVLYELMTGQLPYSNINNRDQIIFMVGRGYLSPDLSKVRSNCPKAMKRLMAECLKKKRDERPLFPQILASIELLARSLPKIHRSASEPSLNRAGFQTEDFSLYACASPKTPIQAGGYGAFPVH
Sequence of Kdr (P35968 20-1356): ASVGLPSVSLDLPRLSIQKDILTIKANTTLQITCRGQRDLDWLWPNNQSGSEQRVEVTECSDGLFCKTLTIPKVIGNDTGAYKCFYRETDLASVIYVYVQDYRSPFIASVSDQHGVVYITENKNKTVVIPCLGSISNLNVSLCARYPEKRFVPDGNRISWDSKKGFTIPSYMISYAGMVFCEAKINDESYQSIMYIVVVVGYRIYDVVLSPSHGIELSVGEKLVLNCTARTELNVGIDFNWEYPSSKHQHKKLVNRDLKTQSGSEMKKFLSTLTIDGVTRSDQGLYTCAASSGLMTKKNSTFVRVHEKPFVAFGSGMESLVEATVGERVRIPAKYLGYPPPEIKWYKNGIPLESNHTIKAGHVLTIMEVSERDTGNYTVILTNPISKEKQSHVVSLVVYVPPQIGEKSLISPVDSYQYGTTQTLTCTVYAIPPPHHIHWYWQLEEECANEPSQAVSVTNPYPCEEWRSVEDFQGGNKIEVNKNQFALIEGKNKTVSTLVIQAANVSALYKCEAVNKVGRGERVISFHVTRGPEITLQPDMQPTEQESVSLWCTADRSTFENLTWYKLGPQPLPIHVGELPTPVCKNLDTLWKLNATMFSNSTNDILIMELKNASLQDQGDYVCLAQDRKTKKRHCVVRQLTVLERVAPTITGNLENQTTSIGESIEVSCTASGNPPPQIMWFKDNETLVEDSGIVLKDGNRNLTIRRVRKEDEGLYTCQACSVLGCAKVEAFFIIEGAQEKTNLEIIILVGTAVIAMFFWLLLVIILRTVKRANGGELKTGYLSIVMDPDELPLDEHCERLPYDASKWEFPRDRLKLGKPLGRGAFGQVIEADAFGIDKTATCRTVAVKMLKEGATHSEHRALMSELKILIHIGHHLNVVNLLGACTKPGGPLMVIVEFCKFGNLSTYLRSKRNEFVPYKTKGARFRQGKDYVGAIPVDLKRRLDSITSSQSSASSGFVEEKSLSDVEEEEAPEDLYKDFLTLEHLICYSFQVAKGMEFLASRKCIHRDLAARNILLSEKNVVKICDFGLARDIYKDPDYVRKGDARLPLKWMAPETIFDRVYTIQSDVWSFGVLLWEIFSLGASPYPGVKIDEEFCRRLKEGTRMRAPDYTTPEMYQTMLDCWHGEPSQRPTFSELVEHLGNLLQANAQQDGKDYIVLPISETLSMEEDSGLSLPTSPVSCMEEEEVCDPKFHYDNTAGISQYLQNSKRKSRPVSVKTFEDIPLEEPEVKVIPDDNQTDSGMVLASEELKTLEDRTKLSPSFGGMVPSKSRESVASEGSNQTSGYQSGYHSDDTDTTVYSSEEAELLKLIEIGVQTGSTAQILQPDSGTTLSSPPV
Sequence of B-Raf V600E (P15056 whole entry V600E): as the sequence (P15056 whole entry) above, with V600E counted along it
Sequence of Fms (P07333 20-972): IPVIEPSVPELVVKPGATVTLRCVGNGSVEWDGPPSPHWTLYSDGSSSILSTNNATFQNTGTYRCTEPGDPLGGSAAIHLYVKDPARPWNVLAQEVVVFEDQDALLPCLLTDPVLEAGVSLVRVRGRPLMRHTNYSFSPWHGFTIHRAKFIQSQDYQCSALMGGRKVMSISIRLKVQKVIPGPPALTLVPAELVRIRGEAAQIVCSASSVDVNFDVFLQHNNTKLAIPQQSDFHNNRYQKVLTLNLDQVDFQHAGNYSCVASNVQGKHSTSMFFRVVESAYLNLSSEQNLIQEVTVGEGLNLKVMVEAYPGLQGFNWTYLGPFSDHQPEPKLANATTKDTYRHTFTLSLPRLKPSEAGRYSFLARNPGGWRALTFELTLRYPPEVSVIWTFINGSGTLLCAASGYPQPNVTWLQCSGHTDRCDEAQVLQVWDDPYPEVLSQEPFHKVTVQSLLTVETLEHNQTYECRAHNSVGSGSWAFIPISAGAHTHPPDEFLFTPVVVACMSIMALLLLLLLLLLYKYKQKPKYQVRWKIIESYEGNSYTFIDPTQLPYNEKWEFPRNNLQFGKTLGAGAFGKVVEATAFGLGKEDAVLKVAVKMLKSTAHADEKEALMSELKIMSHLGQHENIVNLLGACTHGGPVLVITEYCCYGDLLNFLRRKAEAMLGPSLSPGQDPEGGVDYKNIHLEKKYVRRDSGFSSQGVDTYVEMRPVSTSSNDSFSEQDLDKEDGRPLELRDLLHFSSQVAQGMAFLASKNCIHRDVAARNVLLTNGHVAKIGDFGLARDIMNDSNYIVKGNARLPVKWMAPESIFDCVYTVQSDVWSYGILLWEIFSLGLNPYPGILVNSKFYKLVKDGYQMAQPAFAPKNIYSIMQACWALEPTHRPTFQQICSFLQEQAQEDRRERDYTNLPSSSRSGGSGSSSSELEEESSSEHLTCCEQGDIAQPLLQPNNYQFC
Sequence of Src (P12931 whole entry): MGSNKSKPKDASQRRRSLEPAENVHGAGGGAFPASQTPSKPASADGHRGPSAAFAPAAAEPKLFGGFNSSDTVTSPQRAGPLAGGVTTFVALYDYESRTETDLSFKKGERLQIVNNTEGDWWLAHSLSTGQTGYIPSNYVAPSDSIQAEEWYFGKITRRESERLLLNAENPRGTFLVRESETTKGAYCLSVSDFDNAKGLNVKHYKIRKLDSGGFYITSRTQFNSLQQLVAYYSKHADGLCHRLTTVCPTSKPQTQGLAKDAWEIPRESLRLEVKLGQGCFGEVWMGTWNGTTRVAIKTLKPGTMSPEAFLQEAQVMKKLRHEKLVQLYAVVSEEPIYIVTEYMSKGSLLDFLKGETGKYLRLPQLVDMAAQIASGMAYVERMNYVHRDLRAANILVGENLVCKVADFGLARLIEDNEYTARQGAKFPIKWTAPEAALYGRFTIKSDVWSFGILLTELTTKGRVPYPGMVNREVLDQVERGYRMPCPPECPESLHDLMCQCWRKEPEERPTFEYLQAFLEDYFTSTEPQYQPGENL
Sequence of TrkA (P04629 33-796): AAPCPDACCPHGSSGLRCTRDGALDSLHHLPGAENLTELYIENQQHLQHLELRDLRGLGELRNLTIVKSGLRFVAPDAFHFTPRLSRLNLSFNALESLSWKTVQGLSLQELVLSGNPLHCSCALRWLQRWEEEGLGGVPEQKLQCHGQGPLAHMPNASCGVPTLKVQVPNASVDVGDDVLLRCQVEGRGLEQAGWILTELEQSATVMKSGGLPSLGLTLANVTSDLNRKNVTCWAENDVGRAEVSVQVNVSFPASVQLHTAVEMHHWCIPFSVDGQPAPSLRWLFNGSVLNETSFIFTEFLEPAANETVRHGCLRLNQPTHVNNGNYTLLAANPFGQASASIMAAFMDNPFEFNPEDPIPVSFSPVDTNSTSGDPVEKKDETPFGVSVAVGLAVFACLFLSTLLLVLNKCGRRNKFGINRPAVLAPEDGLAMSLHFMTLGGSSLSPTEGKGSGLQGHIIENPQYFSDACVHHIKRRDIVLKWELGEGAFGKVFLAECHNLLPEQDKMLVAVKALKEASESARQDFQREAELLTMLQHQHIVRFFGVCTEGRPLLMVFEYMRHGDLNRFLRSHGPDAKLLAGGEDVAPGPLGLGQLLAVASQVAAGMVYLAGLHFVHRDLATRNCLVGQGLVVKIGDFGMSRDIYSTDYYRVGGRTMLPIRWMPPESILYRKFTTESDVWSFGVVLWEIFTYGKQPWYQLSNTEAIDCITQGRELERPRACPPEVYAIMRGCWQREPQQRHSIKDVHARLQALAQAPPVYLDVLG

Fc1nc(NCc2ccccc2Cl)ccc1Cc1c[nH]c2ncncc12 [P-0005, (2-Chloro-benzyl)-[6-fluoro-5-(7H-pyrrolo[2,3-d]pyrimidin-5-ylmethyl)-pyridin-2-yl]-amine]
≤ 10 µM: TrkA | Kit | Flt-3 | Kdr | Fms | Src

Fc1nc(NCc2ccc(C(F)(F)F)nc2)ccc1Cc1c[nH]c2ncncc12 [P-0007, [6-Fluoro-5-(7H-pyrrolo[2,3-d]pyrimidin-5-ylmethyl)-pyridin-2-yl]-(6-trifluoromethyl-pyridin-3-ylmethyl)-amine]
not listed: Src | B-Raf | C-Raf
≤ 10 µM: all other assays above

COc1ncc(F)cc1CNc1ccc(Cc2c[nH]c3ncncc23)c(F)n1 [P-0011, (5-Fluoro-2-methoxy-pyridin-3-ylmethyl)-[6-fluoro-5-(7H-pyrrolo[2,3-d]pyrimidin-5-ylmethyl)-pyridin-2-yl]-amine]
≤ 10 µM: TrkA | Kit | Flt-3 | A-Raf | Kdr | Fms

COc1ccc(CNc2ccc(Cc3c[nH]c4ncnc(OC)c34)cn2)cn1 [P-0013, (6-Methoxy-pyridin-3-ylmethyl)-[5-(4-methoxy-7H-pyrrolo[2,3-d]pyrimidin-5-ylmethyl)-pyridin-2-yl]-amine]
not listed: TrkA | Src | C-Raf
≤ 10 µM: all other assays above

CC(C)c1ncc(CNc2ccc(Cc3c[nH]c4ncncc34)c(F)n2)cn1 [P-0079, [6-Fluoro-5-(7H-pyrrolo[2,3-d]pyrimidin-5-ylmethyl)-pyridin-2-yl]-(2-isopropyl-pyrimidin-5-ylmethyl)-amine]
≤ 10 µM: Kdr | Fms | Src

Fc1nc(NCc2cccnc2OC2CCCCC2)ccc1Cc1c[nH]c2ncncc12 [P-0088, (2-Cyclohexyloxy-pyridin-3-ylmethyl)-[6-fluoro-5-(7H-pyrrolo[2,3-d]pyrimidin-5-ylmethyl)-pyridin-2-yl]-amine]
not listed: TrkA | Flt-3 | A-Raf
≤ 10 µM: all other assays above

Fc1nc(NCc2ccc(N3CCCC3)cn2)ccc1Cc1c[nH]c2ncncc12 [P-0089, [6-Fluoro-5-(7H-pyrrolo[2,3-d]pyrimidin-5-ylmethyl)-pyridin-2-yl]-(5-pyrrolidin-1-yl-pyridin-2-ylmethyl)-amine]
≤ 10 µM: Kit | B-Raf V600E | Kdr | Fms | Src

COc1ncnc2[nH]cc(Cc3ccc(NCc4ccccc4Cl)nc3F)c12 [P-0090, (2-Chloro-benzyl)-[6-fluoro-5-(4-methoxy-7H-pyrrolo[2,3-d]pyrimidin-5-ylmethyl)-pyridin-2-yl]-amine]
≤ 10 µM: TrkA | Kit | Fms | Src

COc1ncc(CNc2ncc(Cc3c[nH]c4ncnc(OC)c34)cn2)cc1F [P-0092, (5-Fluoro-6-methoxy-pyridin-3-ylmethyl)-[5-(4-methoxy-7H-pyrrolo[2,3-d]pyrimidin-5-ylmethyl)-pyrimidin-2-yl]-amine]
≤ 10 µM: C-Raf | Kit | Fms | Src

COc1ncnc2[nH]cc(Cc3ccc(NCc4cnccc4C(F)(F)F)nc3F)c12 [P-0095, [6-Fluoro-5-(4-methoxy-7H-pyrrolo[2,3-d]pyrimidin-5-ylmethyl)-pyridin-2-yl]-(4-trifluoromethyl-pyridin-3-ylmethyl)-amine]
≤ 10 µM: TrkA | Kit | B-Raf V600E | Fms | Src

COc1ncccc1CNc1ccc(Cc2c[nH]c3ncnc(OC)c23)c(F)n1 [P-0097, [6-Fluoro-5-(4-methoxy-7H-pyrrolo[2,3-d]pyrimidin-5-ylmethyl)-pyridin-2-yl]-(2-methoxy-pyridin-3-ylmethyl)-amine]
≤ 10 µM: TrkA | Kit | Fms | Src

COc1ncnc2[nH]cc(Cc3cnc(NCc4ccc(C(F)(F)F)nc4)nc3)c12 [P-0102, [5-(4-Methoxy-7H-pyrrolo[2,3-d]pyrimidin-5-ylmethyl)-pyrimidin-2-yl]-(6-trifluoromethyl-pyridin-3-ylmethyl)-amine]
not listed: Flt-3 | Src | A-Raf
≤ 10 µM: all other assays above

COc1ncnc2[nH]cc(Cc3cnc(NCc4ccc(C(F)(F)F)nc4)c(F)c3)c12 [P-0103, [3-Fluoro-5-(4-methoxy-7H-pyrrolo[2,3-d]pyrimidin-5-ylmethyl)-pyridin-2-yl]-(6-trifluoromethyl-pyridin-3-ylmethyl)-amine]
not listed: Flt-3 | Src | A-Raf
≤ 10 µM: all other assays above
